In patent publication US12077503B2, “Substituted cyclic amides and their use as herbicides” (FMC CORPORATION, priority 2015, dated 2024):

What was measured:
Test in all cases: Test C preemergence
Type in all cases: in vivo
Settings in all cases: scale 0 to 100, 0 no effect, 100 complete control
[1] = test system: crabgrass, large (large crabgrass, Digitaria sanguinalis)
From the text: (§1) Seeds of plant species selected from blackgrass (Alopecurus myosuroides), ryegrass, Italian (Italian ryegrass, Lolium multiflorum), wheat (winter wheat, Triticum aestivum), Galium (catchweed bedstraw, Galium aparine), corn (Zea mays), crabgrass, large (large crabgrass, Digitaria sanguinalis), foxtail, giant (giant foxtail, Setaria faberii), johnsongrass (Sorghum halepense), lambsquarters (Chenopodium album), morningglory (Ipomoea coccinea), nutsedge, yellow (yellow nutsedge, Cyperus esculentus), pigweed (Amaranthus retroflexus), ragweed (common ragweed, Ambrosia elatior), soybean (Glycine max), barnyardgrass (Echinochloa crus-galli), oilseed rape (Brassica napus), waterhemp (common waterhemp, Amaranthus rudis) and velvetleaf (Abutilon theophrasti) were planted into a blend of loam soil and sand and treated preemergence with test chemicals formulated in a non-phytotoxic solvent mixture which included a surfactant.
(§2) At the same time, plants selected from these crop and weed species and also Kochia (Kochia scoparia), oat, wild (wild oat, Avena fatua), and chickweed (common chickweed, Stellaria media) were planted in pots containing Sunshine Redi-Earth® planting medium comprising spaghnum peat moss, vermiculite, starter nutrients and dolomitic limestone and treated with postemergence applications of test chemicals formulated in the same manner. Plants ranged in height from 2 to 18 cm (1- to 4-leaf stage) for postemergence treatments. Treated plants and controls were maintained in a greenhouse for 13 to 15 d, after which time all species were compared to controls and visually evaluated. Plant response ratings, summarized in Table C, are based on a scale of 0 to 100 where 0 is no effect and 100 is complete control. A dash (-) response means no test result.

[2] = test system: foxtail, giant (giant foxtail, Setaria faberii)
From the text: as §1, §2

[3] = test system: barnyardgrass (Echinochloa crus-galli)
From the text: as §1, §2

[4] = test system: morningglory (Ipomoea coccinea)
From the text: as §1, §2

[5] = test system: velvetleaf (Abutilon theophrasti)
From the text: as §1, §2

[6] = test system: wheat (winter wheat, Triticum aestivum)
From the text: as §1, §2

[7] = test system: corn (Zea mays)
From the text: as §1, §2

[8] = test system: ragweed (common ragweed, Ambrosia elatior)
From the text: as §1, §2

[9] = test system: blackgrass (Alopecurus myosuroides)
From the text: as §1, §2

[10] = test system: soybean (Glycine max)
From the text: as §1, §2

[11] = test system: pigweed (Amaranthus retroflexus)
From the text: as §1, §2

[12] = test system: Galium (catchweed bedstraw, Galium aparine)
From the text: as §1, §2

[13] = test system: ryegrass, Italian (Italian ryegrass, Lolium multiflorum)
From the text: as §1, §2

[14] = test system: waterhemp (common waterhemp, Amaranthus rudis)
From the text: as §1, §2

[15] = test system: oilseed rape (Brassica napus)
From the text: as §1, §2

[16] = test system: nutsedge, yellow (yellow nutsedge, Cyperus esculentus)
From the text: as §1, §2

[17] = test system: lambsquarters (Chenopodium album)
From the text: as §1, §2

CN1CC(c2ccc(C(F)(F)F)c(F)c2)C(C(=O)Nc2cccc(F)c2F)C1=O (stereo not drawn) [Compound 396]
85: Plant response rating, Barnyardgrass ([3]; 31 g ai/ha) | Plant response rating, Ragweed ([8]; 125 g ai/ha) | Plant response rating, Ragweed ([8]; 250 g ai/ha) | Plant response rating, Pigweed ([11]; 31 g ai/ha) | Plant response rating, Oilseed Rape ([15]; 250 g ai/ha)
65: Plant response rating, Velvetleaf ([5]; 125 g ai/ha) | Plant response rating, Corn ([7]; 125 g ai/ha) | Plant response rating, Ragweed ([8]; 31 g ai/ha)
55: Plant response rating, Ryegrass, Italian ([13]; 62 g ai/ha)
98: Plant response rating, Crabgrass, Large ([1]; 62 g ai/ha) | Plant response rating, Crabgrass, Large ([1]; 125 g ai/ha) | Plant response rating, Foxtail, Giant ([2]; 62 g ai/ha) | Plant response rating, Foxtail, Giant ([2]; 125 g ai/ha) | Plant response rating, Foxtail, Giant ([2]; 250 g ai/ha) | Plant response rating, Barnyardgrass ([3]; 125 g ai/ha) | Plant response rating, Barnyardgrass ([3]; 250 g ai/ha) | Plant response rating, Lambsquarters ([17]; 250 g ai/ha)
95: Plant response rating, Crabgrass, Large ([1]; 31 g ai/ha) | Plant response rating, Foxtail, Giant ([2]; 31 g ai/ha) | Plant response rating, Barnyardgrass ([3]; 62 g ai/ha) | Plant response rating, Pigweed ([11]; 250 g ai/ha) | Plant response rating, Waterhemp ([14]; 125 g ai/ha) | Plant response rating, Waterhemp ([14]; 250 g ai/ha)
0: Plant response rating, Corn ([7]; 31 g ai/ha) | Plant response rating, Soybean ([10]; 62 g ai/ha) | Plant response rating, Soybean ([10]; 125 g ai/ha) | Plant response rating, Soybean ([10]; 250 g ai/ha) | Plant response rating, Nutsedge, Yellow ([16]; 31 g ai/ha) | Plant response rating, Nutsedge, Yellow ([16]; 62 g ai/ha)
50: Plant response rating, Corn ([7]; 62 g ai/ha) | Plant response rating, Blackgrass ([9]; 31 g ai/ha) | Plant response rating, Blackgrass ([9]; 62 g ai/ha) | Plant response rating, Lambsquarters ([17]; 31 g ai/ha)
70: Plant response rating, Morningglory ([4]; 250 g ai/ha) | Plant response rating, Wheat ([6]; 125 g ai/ha) | Plant response rating, Oilseed Rape ([15]; 62 g ai/ha) | Plant response rating, Lambsquarters ([17]; 125 g ai/ha)
30: Plant response rating, Ryegrass, Italian ([13]; 125 g ai/ha) | Plant response rating, Oilseed Rape ([15]; 31 g ai/ha) | Plant response rating, Nutsedge, Yellow ([16]; 125 g ai/ha)
80: Plant response rating, Ragweed ([8]; 62 g ai/ha) | Plant response rating, Blackgrass ([9]; 125 g ai/ha) | Plant response rating, Blackgrass ([9]; 250 g ai/ha) | Plant response rating, Pigweed ([11]; 62 g ai/ha) | Plant response rating, Ryegrass, Italian ([13]; 250 g ai/ha) | Plant response rating, Oilseed Rape ([15]; 125 g ai/ha)
20: Plant response rating, Nutsedge, Yellow ([16]; 250 g ai/ha)
60: Plant response rating, Morningglory ([4]; 125 g ai/ha) | Plant response rating, Velvetleaf ([5]; 250 g ai/ha)
40: Plant response rating, Morningglory ([4]; 62 g ai/ha) | Plant response rating, Velvetleaf ([5]; 62 g ai/ha)
100: Plant response rating, Crabgrass, Large ([1]; 250 g ai/ha) | Plant response rating, Galium ([12]; 125 g ai/ha) | Plant response rating, Galium ([12]; 250 g ai/ha)
90: Plant response rating, Wheat ([6]; 250 g ai/ha) | Plant response rating, Pigweed ([11]; 125 g ai/ha) | Plant response rating, Galium ([12]; 31 g ai/ha) | Plant response rating, Galium ([12]; 62 g ai/ha) | Plant response rating, Waterhemp ([14]; 62 g ai/ha)
10: Plant response rating, Morningglory ([4]; 31 g ai/ha) | Plant response rating, Wheat ([6]; 62 g ai/ha)
75: Plant response rating, Corn ([7]; 250 g ai/ha) | Plant response rating, Lambsquarters ([17]; 62 g ai/ha)

CN1CC(c2ccc(C(F)(F)F)c(F)c2)C(C(=O)Nc2ccccc2F)C1=O (stereo not drawn) [Compound 399]
95: Plant response rating, Foxtail, Giant ([2]; 31 g ai/ha) | Plant response rating, Foxtail, Giant ([2]; 62 g ai/ha) | Plant response rating, Barnyardgrass ([3]; 31 g ai/ha) | Plant response rating, Pigweed ([11]; 250 g ai/ha)
20: Plant response rating, Velvetleaf ([5]; 62 g ai/ha)
50: Plant response rating, Velvetleaf ([5]; 125 g ai/ha) | Plant response rating, Ragweed ([8]; 31 g ai/ha) | Plant response rating, Ragweed ([8]; 62 g ai/ha) | Plant response rating, Blackgrass ([9]; 31 g ai/ha) | Plant response rating, Ryegrass, Italian ([13]; 62 g ai/ha) | Plant response rating, Ryegrass, Italian ([13]; 250 g ai/ha)
55: Plant response rating, Morningglory ([4]; 250 g ai/ha)
60: Plant response rating, Velvetleaf ([5]; 250 g ai/ha) | Plant response rating, Corn ([7]; 250 g ai/ha)
35: Plant response rating, Corn ([7]; 31 g ai/ha) | Plant response rating, Oilseed Rape ([15]; 31 g ai/ha)
15: Plant response rating, Wheat ([6]; 62 g ai/ha)
90: Plant response rating, Blackgrass ([9]; 250 g ai/ha) | Plant response rating, Pigweed ([11]; 125 g ai/ha) | Plant response rating, Galium ([12]; 125 g ai/ha) | Plant response rating, Galium ([12]; 250 g ai/ha) | Plant response rating, Waterhemp ([14]; 125 g ai/ha) | Plant response rating, Lambsquarters ([17]; 31 g ai/ha)
75: Plant response rating, Wheat ([6]; 250 g ai/ha) | Plant response rating, Pigweed ([11]; 62 g ai/ha) | Plant response rating, Ryegrass, Italian ([13]; 125 g ai/ha)
80: Plant response rating, Wheat ([6]; 125 g ai/ha) | Plant response rating, Ragweed ([8]; 250 g ai/ha) | Plant response rating, Blackgrass ([9]; 62 g ai/ha) | Plant response rating, Galium ([12]; 31 g ai/ha) | Plant response rating, Waterhemp ([14]; 62 g ai/ha)
40: Plant response rating, Morningglory ([4]; 31 g ai/ha) | Plant response rating, Morningglory ([4]; 62 g ai/ha) | Plant response rating, Corn ([7]; 62 g ai/ha)
85: Plant response rating, Galium ([12]; 62 g ai/ha) | Plant response rating, Oilseed Rape ([15]; 250 g ai/ha) | Plant response rating, Lambsquarters ([17]; 62 g ai/ha) | Plant response rating, Lambsquarters ([17]; 125 g ai/ha)
0: Plant response rating, Soybean ([10]; 62 g ai/ha) | Plant response rating, Soybean ([10]; 125 g ai/ha) | Plant response rating, Soybean ([10]; 250 g ai/ha) | Plant response rating, Nutsedge, Yellow ([16]; 31 g ai/ha) | Plant response rating, Nutsedge, Yellow ([16]; 62 g ai/ha) | Plant response rating, Nutsedge, Yellow ([16]; 125 g ai/ha) | Plant response rating, Nutsedge, Yellow ([16]; 250 g ai/ha)
98: Plant response rating, Crabgrass, Large ([1]; 31 g ai/ha) | Plant response rating, Crabgrass, Large ([1]; 62 g ai/ha) | Plant response rating, Foxtail, Giant ([2]; 125 g ai/ha) | Plant response rating, Foxtail, Giant ([2]; 250 g ai/ha) | Plant response rating, Barnyardgrass ([3]; 62 g ai/ha) | Plant response rating, Barnyardgrass ([3]; 250 g ai/ha) | Plant response rating, Waterhemp ([14]; 250 g ai/ha) | Plant response rating, Lambsquarters ([17]; 250 g ai/ha)
65: Plant response rating, Corn ([7]; 125 g ai/ha) | Plant response rating, Ragweed ([8]; 125 g ai/ha)
30: Plant response rating, Morningglory ([4]; 125 g ai/ha) | Plant response rating, Oilseed Rape ([15]; 62 g ai/ha)
100: Plant response rating, Crabgrass, Large ([1]; 125 g ai/ha) | Plant response rating, Crabgrass, Large ([1]; 250 g ai/ha) | Plant response rating, Barnyardgrass ([3]; 125 g ai/ha)
70: Plant response rating, Blackgrass ([9]; 125 g ai/ha) | Plant response rating, Pigweed ([11]; 31 g ai/ha) | Plant response rating, Oilseed Rape ([15]; 125 g ai/ha)
